Experiments:
[1] = system: hESC-derived differentiating cells; experiment: Ki67 staining of differentiating cells after addition of IL-6; type: cell-based, human; conditions: after addition of IL-6 (10 ng/ml)
Method: (§1) At days 10-12 of differentiation, hESC/hiPSC-hepatoblasts were harvested with cell dissociation buffer (0.1 mg/ml EDTA, 0.5 mg/ml BSA in PBS) and seeded onto 12-well collagen I-coated plates (BD Biosciences) with plating medium (William's E/Ham F12 1:1, 10% FBS (PAA Laboratories), 1 mg/ml fraction V fatty acid-free BSA (Sigma), 1 mM L-glutamine) for 4 hours. Cells were then incubated overnight with biliary differentiation medium (BDM) (William's E/Ham F12 1:1, 10^−5 M linoleic acid-Albumin (Sigma L9530), 5.10^−8 M 3,3′,5-Triiodo-L-thyronine (Sigma T2752), 0.2 IU Insulin, 6.10^−4 M Vitamin C (Boyer), […] (Sigma T5391), 1 mM sodium pyruvate (Gibco)). […]
Cells were fixed with 4% Paraformaldehyde for 15 minutes at room temperature and permeabilized with 0.5% Triton X-100 for 15 minutes, 3% BSA-PBS for 30 minutes at room temperature or with 0.2% saponin and 5% donkey serum for 45 minutes at room temperature. […] All the photographs were taken with a Leica HMR microscope (Leica Microsystems), inverted DMIRBE microscope (Leica) using a 20×/0.4 N Plan objective (leica) and a CoolSnapES N&B camera (Photometrics) driven by MetaVue software (Molecular devices), SP5 LEICA DMI 6000 CS Microscope (Leica, Germany) and treated with LAS AF 2.6.0 software, or ACT-1 Nikon software or Cellomics ArrayScan VTI HCS Reader.

hepatic progenitors = experiment: Effect of periportal mesenchymal factors on commitment of hepatic progenitors toward cholangiocytes; type: cell-based, human; conditions: addition to hepatic progenitors; data not shown
HepaRG-Chol = conditions: VEGF-165 20 ng/ml for 2 days
Method: HepaRG-HB cultured in the reduced medium were treated for 2 days with IL-6 (10 ng/ml), then for 2 days with sodium taurocholate hydrate (10 nM) and then for 2 days with sodium taurocholate hydrate (10 nM) and sodium butyrate (1.8 μM) to prevent spontaneous differentiation along the hepatocytic lineage. Independent culture experiments were performed 4 times. For proliferation assay, VEGF-165 (20 ng/ml) (Promokine, C-64420) was added on HepaRG-Chol culture for 2 days. Immunostaining pictures were analyzed and quantification was assessed with Cell Health Profiling BioApplication from Cellomics software.

HepaRG-HB = experiment: Effect of GH on HepaRG-hepatoblasts; type: cell-based, human; conditions: addition of GH; data not shown
Method: Independent culture experiments were performed 4 times.

hESC-Chol [2] = experiment: Cellular Ca2+ imaging: intracellular Ca2+ increase after hormonal stimulation; type: cell-based, human; conditions: hESC-Chol at day 23, Fura2-AM loaded
Method: At day 17, differentiating hESC-Chols were plated on glass coverslips coated with type I collagen and differentiated further into cholangiocyte-like cells as described above. At day 23 hESC-Chols were loaded with 3 μM Fura2-AM (Invitrogen, F1201) in BDM medium (37° C. and 5% CO2), for 45 minutes. Cells were then washed twice, and transferred into a perfusion chamber placed on the stage of a Zeiss inverted microscope (Axiovert 35). Intracellular calcium increases were measured after stimulation with somatostatin (Eumedica), ATP (Sigma), or Acetylcholine (Sigma). Calcium imaging was performed as described previously.^41 Fluorescence images were collected by a charge-coupled device camera (Princeton), digitized and integrated in real time by an image processor (Metafluor, Princeton).
To assess the functionality of our hESC-Chol, they analyzed their response to Adenosine triphosphate (ATP), acetylcholine and Somatostatin, known to induce Ca^2+ increase in biliary cells via P2Y1 receptors,^5 M3 muscarinic receptor (AChR M3),^25 Somatostatin receptor type 2 (SSTR2)^26 respectively, as well as type III Inositol 1,4,5-triphosphate (InsP3) receptor (InsP3R), an intracellular Ca^2+ channel, which stimulates release of Ca^2+ from intracellular stores into the cytosol.^27

hESC-Chol [3] = experiment: Expression of cholangiocyte markers in hESC-Chol after addition of NaBut; type: cell-based, human; conditions: addition of NaBut on hESC-Chol (1 μM, days 21 to 23)
Method: as §1
Total RNA was purified with an RNAeasy kit (Qiagen). cDNAs were obtained by using QuantiTect kit (Qiagen 204341) or the High Capacity cDNA Reverse Transcription Kit (Applied Biosystems, Carlsbad, Calif.) according to the manufacturer's instructions. The level of gene expression was measured and analyzed by real-time PCR over 40 cycles using Taqman universal master mix II and Taqman gene expression assays (Applied Biosystems) using an ABI-7000 real-time PCR system and ABI 7000 software. The expression level of CFTR TGR5 (GPBAR-1), SCTR, GGT1, SOX9, AQP1 and JAG was determined in relation to RPL13A, which served as a housekeeping gene. […]

IL-6: polypeptide also known as B cell-stimulating factor 2; Uniprot P05231
Ki67-positive cycling cells [1]: up to 68%

TGFβ1: Transforming growth factor beta 1
cell commitment toward cholangiocytes (hepatic progenitors): did not induce significant cell commitment

VEGF
increase in the number of cells in G2/M phases (HepaRG-Chol): two-fold increase | cell commitment toward cholangiocytes (hepatic progenitors): did not induce significant cell commitment

GH: peptide hormone that stimulates growth and metabolism; Uniprot P01241
proliferation and differentiation of HepaRG-hepatoblasts (HepaRG-HB): did not improve

CC(=O)OCC[N+](C)(C)C [acetylcholine]
percentage of responsive cells (Ca2+ increase) (hESC-Chol [2]): 40%±4

Nc1ncnc2c1ncn2[C@@H]1O[C@H](COP(=O)(O)OP(=O)(O)OP(=O)(O)O)[C@@H](O)[C@H]1O [ATP, Adenosine triphosphate]
percentage of responsive cells (Ca2+ increase) (hESC-Chol [2]): 70%±5

CCCC(=O)[O-].[Na+] [NaBut, Sodium Butyrate]
expression of cholangiocyte markers (hESC-Chol [3]): did not significantly change

B1: BMP4: Bone morphogenetic protein 4; Uniprot P12644 (protein, UniProt P12644 293-408, looked up)
Bone morphogenetic protein 4: SPKHHSQRARKKNKNCRRHSLYVDFSDVGWNDWIVAPPGYQAFYCHGDCPFPLADHLNSTNHAIVQTLVNSVNSSIPKACCVPTELSAISMLYLDEYDKVVLKNYQEMVVEGCGCR
cell commitment toward cholangiocytes (hepatic progenitors): did not induce significant cell commitment
